Data from patent US8618179B2, “Composition comprising a pesticide and an alkoxylate of 2-propylheptylamine” (BASF SE, priority 2010, dated 2013).

What was measured:
[1] = system: Brachiarea multica; test: Field trial, glyphosate SL formulation with amine alkoxylate against weed; format: in vivo; settings: glyphosate-isopropylammonium SL spray solution with amine alkoxylate, visual estimate
Description: To this end, in each case 1.0 l of spray solution (see table 1) was sprayed per plot using a manual sprayer. 1.0 l of the spray solution contained 7.5 ml of an aqueous formulation of dissolved glyphosate-isopropyl-ammonium salt. To prepare this formulation, 100 ml of amine alkoxylate of example 2 were previously made up to 1.0 l with 46% strength glyphosate-isopropylammonium salt solution. Two, five and seven days after the application, the destruction of the weed was estimated visually in percent. Rain fell repeatedly in the days between application and assessment.

[2] = Storage stability of glyphosate formulation with amine alkoxylate; format: physicochemical; settings: temperatures of from 5 to +55° C.
Description: Also, the formulation was rainfast.

[3] = Gelling upon addition of amine alkoxylate to glyphosate solution; format: physicochemical; settings: addition at 20° C.
[4] = system: Daphnia magna; test: Water toxicity on Daphnia magna, OECD Guideline 202 part 1; format: in vivo; settings: 48 h
[5] = system: winter oilseed rape (cultivar Remy); test: Greenhouse test, glyphosate SL formulation on oilseed rape; format: in vivo; settings: Table 2; 140 g of glyphosate/ha and 300 g of amine alkoxylate/ha
Description: A concentrated formulation comprising glyphosate isopropylammonium in solution in water and amine alkoxylate from Example 2 was diluted with deionized water and applied at a water application rate of 375 l/ha (140 g of glyphosate/ha and 300 g of amine alkoxylate/ha). The temperatures in the experimental period, which lasted for 3 to 4 weeks, were between 18-35° C. During this time, the experimental plants received optimum watering, with nutrients being supplied via the water used for watering. The herbicidal activity was evaluated by awarding scores to the treated plants in comparison to the untreated control plants (Table 2). […] Conversely, 0% activity means that there were no differences between treated and untreated plants. […] The application rate was 140 g of glyphosate/ha and 300 g of amine alkoxylate/ha.

[6] = system: Ambrosia artemisiifolia (AMBEL); test: Greenhouse test, imazamox SL formulation on Ambrosia; format: in vivo; settings: scored after 14 days; 10 g of imazamox/ha and 400 g of amine alkoxylate/ha
Description: (§1) The herbicidal activity was evaluated by awarding scores to the treated plants in comparison to the untreated control plants (Table 2). The evaluation scale ranges from 0% to 100% activity. 100% activity means the complete death at least of those parts of the plant that are above ground. Conversely, 0% activity means that there were no differences between treated and untreated plants.
(§2) The application rate was 10 g of imazamox/ha and 400 g of amine alkoxylate/ha. For comparison, a tallow fatty amine ethoxylate with 12 ethylene oxide units was used (liquid, approximately 100% content, molar mass approximately 730 g/mol (calculated from OH number), available commercially as Lutensol® FA12K from BASF SE).

[7] = system: Chenopodium album (CHEAL); test: Greenhouse test, imazamox SL formulation on Chenopodium; format: in vivo; settings: scored after 14 days; 10 g of imazamox/ha and 400 g of amine alkoxylate/ha
Description: as §1, §2

Substance: 2-propylheptylamine ethoxylate [2-PHamine-7 EO]
- Proportion [%] of weed destroyed ([1]; 2 days after application): 40%
- Proportion [%] of weed destroyed ([1]; 5 days after application): 87.5%
- Proportion [%] of weed destroyed ([1]; 7 days after application): 90%
- Storage stability of the formulation [2]: storage-stable for at least two weeks
- Gelling upon addition to the glyphosate solution [3]: no gelling observed
- EC50 [4]: 60 µg/mL
- Activity [%] after 14 days [5]: 75%
- Activity [%] after 21 days [5]: 86%
- Activity [%] AMBEL [6]: 80%
- Activity [%] CHEAL [7]: 93%
